Patent publication US10016382B2, “Method for decreasing skeletal muscle damage and/or oxidative stress in mammals” (LONZA INC., priority 2014, dated 2018)

Test: Body composition by GE Prodigy DEXA scan, Example 1
Type: in vivo, dog
Conditions: for % Fat, Mean / BMC, Mean / Lean Mass, Mean / Total Mass, Mean: Table 14; for BMC-Change / Lean Mass-Change / Total Mass-Change / BMC-Final / BMC-Initial / Lean Mass-Final / Lean Mass-Initial / Total Mass-Final / Total Mass-Initial: Table 20, mean ± SEM; for BMC-Change / Lean Mass-Change / Total Mass-Change: beginning to completion of study
Experimental: Forty Labrador Retrievers were divided into two equal groups of twenty (11 males, 9 females) based on gender, body weight (“BW”), genetics, and lean mass and fed a low L-carnitine basal diet for a 90 day feeding period. The experimental dogs were fed the low L-carnitine basal for 10 days prior to the start of the study. Twenty of the Labs received 250 mg/day of L-carnitine (batch D22312) and 3.75 g of sugar and twenty of the Labs received 4 g/d of sugar. The dogs were scanned with a GE Prodigy DEXA system immediately prior to beginning of the study and the determined lean mass was utilized as a key component for helping assort the dogs equally between the control and L-carnitine group. A serum sample was obtained from each dog to determine a baseline value for blood biomarkers that were used to evaluate muscle damage and antioxidant status. The L-carnitine and control performance dogs were put through a weekly running program consisting of running sprint type shorter runs of higher intensity twice weekly (1200 yds/session increasing to 2400 yds/session over 10 wk period) and running endurance longer runs one time per wk (increasing from 5 miles/session to 10 miles per session over a 10 wk period). Each performance dog also wore the Actical activity monitor during the last endurance run. The dogs were put through a 15 mile run that included mud, water, tall grass, and swimming. The dogs were timed when they completed the course. The dogs were encouraged by kennel staff that rode along in a 4 wheel all terrain type vehicle during all of the endurance runs. […] Immediately following the 15 mile endurance run, each dog was placed in a kennel and evaluated for recovery time for body temperature (every 15 minutes for 2 hr) and heart rate (every 2 minutes for 14 minutes). Twenty four hours after test dogs ran the last 15 endurance run, post-run serum samples were taken to evaluate biomarkers for muscle damage and antioxidant status. Each test dog was also scanned with the GE Prodigy DEXA to determine body composition change that occurred during the course of the 13 wk study. Body Scans: Each dog was scanned for body composition with a GE Prodigy Pro Fan beam instrument during the week prior to the beginning of the 90 day study and the first working day following the last endurance run. Body composition values were determined for % lean mass, % fat mass, and % bone ash for each dog. The difference in body composition was determined by comparing the beginning scan and last scan for each test dog. The final scans were completed 24 hr post run.

For `C[N+](C)(C)C[C@H](O)CC(=O)[O-]` [L-carnitine], the “Lean mass over the study” value (Ex.1, 250 mg/d, DEXA, initial vs final, either group) was “No increase in lean mass”, the “Increase in % fat mass” value (Ex.1, 250 mg/d, females, beginning to end of study, vs 8.9% control females (p=0.22)) was 4.2% and the Increase in fat (Ex.1, 250 mg/d, females, over 90 day study, unpaired t-test (Table 20), vs 9% control females (p=0.30)) was 5.8%. The “Fat mass at the end of the study” value (Ex.1, 250 mg/d, females, vs 11.1 lbs control (p=0.29)) was 8.9 lbs, the “BMC Least Sq Mean” value (F, Final) was 820.2 g and the “Fat Least Sq Mean” value (F, Final) was 8.892 lbs. The “Fat Percentage Least Sq Mean” value (F, Final) was 16.32, the “Lean Mass Least Sq Mean” value (F, Final) was 45.62 lbs and the “Total Mass Least Sq Mean” value (F, Final) was 54.51 lbs. The “BMC Least Sq Mean” value (F, Initial) was 766.5 g, the “Fat Least Sq Mean” value (F, Initial) was 5.631 lbs and the “Fat Percentage Least Sq Mean” value (F, Initial) was 11.03. For the same compound, the “Lean Mass Least Sq Mean” value (F, Initial) was 45.83 lbs, the “Total Mass Least Sq Mean” value (F, Initial) was 51.14 lbs and the “BMC Least Sq Mean” value (Final) was 861.6 g. For the same compound, the “Fat Least Sq Mean” value (Final) was 8.558 lbs, the “Fat Percentage Least Sq Mean” value (Final) was 14.52 and the “Lean Mass Least Sq Mean” value (Final) was 49.83 lbs. For the same compound, the “Total Mass Least Sq Mean” value (Final) was 58.39 lbs, the “BMC Least Sq Mean” value (Initial) was 784.2 g and the “Fat Least Sq Mean” value (Initial) was 5.779 lbs. The “Fat Percentage Least Sq Mean” value (Initial) was 10.31, the “Lean Mass Least Sq Mean” value (Initial) was 49.87 lbs and the “Total Mass Least Sq Mean” value (Initial) was 55.49 lbs. The “BMC Least Sq Mean” value (M, Final) was 903 g, the “Fat Least Sq Mean” value (M, Final) was 8.225 lbs and the “Fat Percentage Least Sq Mean” value (M, Final) was 12.73. For the same compound, the “Lean Mass Least Sq Mean” value (M, Final) was 54.04 lbs, the “Total Mass Least Sq Mean” value (M, Final) was 62.27 lbs and the “BMC Least Sq Mean” value (M, Initial) was 801.8 g. For the same compound, the “Fat Least Sq Mean” value (M, Initial) was 5.927 lbs, the “Fat Percentage Least Sq Mean” value (M, Initial) was 9.582 and the “Lean Mass Least Sq Mean” value (M, Initial) was 53.9 lbs. The “Total Mass Least Sq Mean” value (M, Initial) was 59.83 lbs, the “% Fat, Mean” value (Sex F, Final) was 16.3% and the “BMC, Mean” value (Sex F, Final) was 820 g. The “Lean Mass, Mean” value (Sex F, Final) was 45.6 lb, the “Total Mass, Mean” value (Sex F, Final) was 54.5 lb and the “% Fat, Mean” value (Sex F, Initial) was 12.1%. For the same compound, the “BMC, Mean” value (Sex F, Initial) was 764 g, the “Lean Mass, Mean” value (Sex F, Initial) was 44.7 lb and the “Total Mass, Mean” value (Sex F, Initial) was 50.8 lb. For the same compound, the “% Fat, Mean” value (Sex M, Final) was 12.7%, the “BMC, Mean” value (Sex M, Final) was 903 g and the “Lean Mass, Mean” value (Sex M, Final) was 54.0 lb. For the same compound, the “Total Mass, Mean” value (Sex M, Final) was 62.3 lb, the “% Fat, Mean” value (Sex M, Initial) was 9.6% and the “BMC, Mean” value (Sex M, Initial) was 802 g. For the same compound, the “Lean Mass, Mean” value (Sex M, Initial) was 53.9 lb, the “Total Mass, Mean” value (Sex M, Initial) was 59.8 lb and the “% Fat, Mean” value (all dogs, Final) was 14.3%. The “BMC, Mean” value (all dogs, Final) was 866 g, the “Lean Mass, Mean” value (all dogs, Final) was 50.3 lb and the “Total Mass, Mean” value (all dogs, Final) was 58.8 lb. The “% Fat, Mean” value (all dogs, Initial) was 10.6%, the “BMC, Mean” value (all dogs, Initial) was 787 g and the “Lean Mass, Mean” value (all dogs, Initial) was 50.3 lb. The “Total Mass, Mean” value (all dogs, Initial) was 56.3 lb, the BMC-Change (all dogs) was 82 ± 46 n = 20 g and the “Lean Mass-Change” value (all dogs) was 0.1 ± 0.3 n = 20 lb. For the same compound, the “Total Mass-Change” value (all dogs) was 3.4 ± 0.8 n = 20 lb, the BMC-Final (all dogs) was 866 ± 26 n = 20 g and the BMC-Initial (all dogs) was 784 ± 44 n = 20 g. For the same compound, the “Lean Mass-Final” value (all dogs) was 50.3 ± 1.5 n = 20 lb, the “Lean Mass-Initial” value (all dogs) was 50.2 ± 1.5 n = 20 lb and the “Total Mass-Final” value (all dogs) was 58.8 ± 1.7 n = 20 lb. For the same compound, the “Total Mass-Initial” value (all dogs) was 55.3 ± 1.7 n = 20 lb, the BMC-Change (♀) was 58 ± 11 n = 9 g and the “Lean Mass-Change” value (♀) was 0 ± 0.5 n = 9 lb. For the same compound, the “Total Mass-Change” value (♀) was 4.7 ± 1.5 n = 9 lb, the BMC-Final (♀) was 820 ± 19 n = 9 g and the BMC-Initial (♀) was 762 ± 18 n = 9 g. For the same compound, the “Lean Mass-Final” value (♀) was 45.6 ± 1.7 n = 9 lb, the “Lean Mass-Initial” value (♀) was 45.7 ± 1.3 n = 9 lb and the “Total Mass-Final” value (♀) was 54.5 ± 1.4 n = 9 lb. For the same compound, the “Total Mass-Initial” value (♀) was 49.8 ± 1.1 n = 9 lb, the BMC-Change (♂) was 101 ± 84 n = 11 g and the “Lean Mass-Change” value (♂) was 0.1 ± 0.5 n = 11 lb. For the same compound, the “Total Mass-Change” value (♂) was 2.4 ± 0.6 n = 11 lb, the BMC-Final (♂) was 903 ± 42 n = 11 g and the BMC-Initial (♂) was 802 ± 80 n = 11 g. The “Lean Mass-Final” value (♂) was 54 ± 1.7 n = 11 lb, the “Lean Mass-Initial” value (♂) was 53.9 ± 1.8 n = 11 lb and the “Total Mass-Final” value (♂) was 62.3 ± 2.6 n = 11 lb. The “Total Mass-Initial” value (♂) was 59.8 ± 2.2 n = 11 lb, the “BMC Least Sq Mean” value (Treatment * Sex, F) was 766.5 g and the “Fat Least Sq Mean” value (Treatment * Sex, F) was 7.261 lbs. For the same compound, the “Fat Percentage Least Sq Mean” value (Treatment * Sex, F) was 11.03, the “Lean Mass Least Sq Mean” value (Treatment * Sex, F) was 45.83 lbs and the “Total Mass Least Sq Mean” value (Treatment * Sex, F) was 51.14 lbs. For the same compound, the “BMC Least Sq Mean” value (Treatment * Sex, M) was 801.8 g, the “Fat Least Sq Mean” value (Treatment * Sex, M) was 7.076 lbs and the “Fat Percentage Least Sq Mean” value (Treatment * Sex, M) was 9.582. For the same compound, the “Lean Mass Least Sq Mean” value (Treatment * Sex, M) was 53.9 lbs, the “Total Mass Least Sq Mean” value (Treatment * Sex, M) was 59.83 lbs and the “BMC Least Sq Mean” value (Treatment level, all dogs) was 784.2 g. For the same compound, the “Fat Least Sq Mean” value (Treatment level, all dogs) was 7.169 lbs, the “Fat Percentage Least Sq Mean” value (Treatment level, all dogs) was 10.31 and the “Lean Mass Least Sq Mean” value (Treatment level, all dogs) was 49.87 lbs. The “Total Mass Least Sq Mean” value (Treatment level, all dogs) was 55.49 lb, the “Body mineral content (BMC), mixed model Estimate, term Treatment[L-carnitine]” value (model term) was −22.85 and the “Body mineral content (BMC), mixed model Estimate, term Treatment[L-carnitine] * Sex[F]” value (model term) was 37.64. The “Body mineral content (BMC), mixed model Estimate, term Treatment[L-carnitine] * Sex[F] * Time[Final-Initial]” value (model term) was −17.19, the “Body mineral content (BMC), mixed model Estimate, term Treatment[L-carnitine] * Time[Final-Initial]” value (model term) was 6.762 and the “Fat mass, mixed model Estimate, term Treatment[L-carnitine]” value (model term) was −0.2546. The “Fat mass, mixed model Estimate, term Treatment[L-carnitine] * Sex[F]” value (model term) was −0.1764, the “Fat mass, mixed model Estimate, term Treatment[L-carnitine] * Sex[F] * Time[Initial]” value (model term) was 0.331 and the “Fat mass, mixed model Estimate, term Treatment[L-carnitine] * Time[Initial]” value (model term) was 0.3408. The “Fat percentage, mixed model Estimate, term Treatment[L-carnitine]” value (model term) was 0.1573, the “Fat percentage, mixed model Estimate, term Treatment[L-carnitine] * Sex[F]” value (model term) was 0.281 and the “Fat percentage, mixed model Estimate, term Treatment[L-carnitine] * Sex[F] * Time[Final-Initial]” value (model term) was −0.9515. The “Fat percentage, mixed model Estimate, term Treatment[L-carnitine] * Time[Final-Initial]” value (model term) was −0.8868, the “Lean mass, mixed model Estimate, term Treatment[L-carnitine]” value (model term) was −0.3966 and the “Lean mass, mixed model Estimate, term Treatment[L-carnitine] * Sex[F]” value (model term) was 0.618. The “Lean mass, mixed model Estimate, term Treatment[L-carnitine] * Sex[F] * Time[Final-Initial]” value (model term) was 0.1808, the “Lean mass, mixed model Estimate, term Treatment[L-carnitine] * Time[Final-Initial]” value (model term) was −0.234 and the “Total Body Mass, mixed model Estimate, term Treatment[L-carnitine]” value (model term) was −0.3536. For the same compound, the “Total Body Mass, mixed model Estimate, term Treatment[L-carnitine] * Sex[F]” value (model term) was 0.6569, the “Total Body Mass, mixed model Estimate, term Treatment[L-carnitine] * Sex[F] * Time[Final-Initial]” value (model term) was −0.3655 and the “Total Body Mass, mixed model Estimate, term Treatment[L-carnitine] * Time[Final-Initial]” value (model term) was −0.8724.
